The text below walks through data of patent US12539320B2, “Composition for improving eyesight” (South China Agricultural University, priority 2022, dated 2026).

Format in all cases: in vivo, BALB/c mice
Common to all, as to settings: 5 μL dripped into conjunctival sac 2 times a day for 15 days, mean (SD in next cell)

The test system of experiment [1] is conjunctival epithelial mucin MUC5AC. Nature of the experiment: Expression amount of conjunctival epithelial mucin MUC5AC by Western Blot in xerophthalmia mice. As to the method:
(§1) 1.1 Test animals: 100 SPF-grade 8-week-old healthy BALB/c mice, each weighed 18-22 g, were selected, and anterior segment and fundus of the eyes were not abnormal.
(§2) 1.2. Establishment of animal model: 90 mice were selected to induce a model of xerophthalmia. 5 μL of 2 g/L of a benzalkonium chloride solution was dripped into conjunctival sac of the eyes of 90 mice for 2 times a day and continuously for 15 days. After the modeling was success, the mice were randomly divided into 9 groups with 10 mice in each group.
(§3) 1.3. […] After 15 days, the secretion amount of tear, breakup time of a tear film, and the expression amount of conjunctival epithelial mucin MUC5AC were measured for the mice in each group.
(3) Measurement of expression amount of conjunctival epithelial mucin MUC5AC: an expression level of the mucin MUC5AC in the conjunctival epithelial cells of the mouse was detected by Western Blot.

The test system of experiment [2] is mice with xerophthalmia. Nature of the experiment: Measurement of breakup time of tear film (fluorescein sodium, slit lamp) in xerophthalmia mice. As to the method:
as §1, §2, §3
(2) Measurement of breakup time of tear film: 1 μL of 10 g/L of a fluorescein sodium solution was dripped into the conjunctival sac of the mouse, after the mouse blinked, the eyes were artificially kept in a normal opening state, and time for a tear film to generate the 1st black spot (breaking point) was observed and recorded under a cobalt blue light of a slit lamp.

In experiment [3] the test system is mice with xerophthalmia. Nature of the experiment: Measurement of secretion amount of tear (phenol red cotton thread) in benzalkonium chloride-induced xerophthalmia mice. On the procedure: as §1, §2, §3
(1) Measurement of secretion amount of tear: a phenol red cotton thread was placed in the conjunctival sac of the mouse at about ⅓ outside for 1 min and a length of a red part of the phenol red cotton thread was measured.

In the case of lutein ester [Comparative example 3], in experiment [1], the “Expression amount of conjunctival epithelial mucin MUC5AC” value was 0.38 ng/mg. The “Breakup time of tear film” value in the experiment on mice with xerophthalmia [2] is reported as 36.72 s. Moreover, the “Secretion amount of tear” value in the experiment with mice with xerophthalmia [3] was determined as 6.46 mm.
